In brackets after ≈: the same amount, converted by molar mass. Where two headings read alike, the source gives them in different places. Values belong to the molecule of their own block, whether it stands above or below them.
What was measured:
[1] = tested on: Staphylococcus aureus, MRSA (ATCC 33591); assay: Antibacterial MIC assay (microbroth dilution, CLSI); type: cell-based; conditions: read-out: MIC Staphylococcus aureus, MRSA (ATCC 33591)
Description: (§1) All MIC testing of bacteria followed the Clinical and Laboratory Standards Institute (CLSI) guidelines for antimicrobial testing of aerobic bacteria (Methods for Dilution Antimicrobial Susceptibility Tests for Bacteria that Grow Aerobically; Approved Standard—Tenth Edition, M07-A10; Performance Standards for Antimicrobial Susceptibility Testing; Twenty-fifth Informational Supplement, M100-S25).
(§2) Briefly, the microbroth dilution MIC method was used to quantitatively measure the in vitro antibacterial activity of a compound against a given bacterial isolate. The following bacterial strains were evaluated: Staphylococcus aureus, MRSA (ATCC 33591) and Streptococcus pneumoniae (ATCC 49619). Bacteria were grown in cation-adjusted Mueller-Hinton broth, with additions as required per species growth requirements (e.g. 3% lysed horse blood for fastidious organisms such as S. pneumoniae). A direct colony suspension in saline was prepared from colonies on an overnight agar plate to achieve a turbidity equivalent to 0.5 McFarland standard, which was subsequently diluted into the assay plate to achieve 5×10^5 CFU/mL. Assays plates were prepared by 2-fold dilution of compound across the plate and included a positive growth control.

[2] = tested on: Streptococcus pneumoniae (ATCC 49619); assay: as above; type: cell-based
Description: as §1
as §2, with “The following bacterial strains were evaluated: Staphylococcus aureus, MRSA (ATCC 33591) and Streptococcus pneumoniae (ATCC 49619).” left out

[3] = ATCC49619, read-out: MIC Streptococcus pneumoniae (ATCC 49619)
[4] = microbroth dilution, cation-adjusted Mueller-Hinton broth, 35° C. for 16-20 hours
[5] = ATCC49619, microbroth dilution, 3% lysed horse blood, 35° C. for 16-20 hours, read-out: MIC Streptococcus pneumoniae (ATCC 49619)

SMILES: C=C[C@]1(C)C[C@@H](OC(=O)COC(=O)Nc2ccc3c(c2F)B(O)OC3)[C@]2(C)[C@H](C)CC[C@]3(CCC(=O)[C@H]32)[C@@H](C)[C@@H]1O [Compound 55, (3aR,4R,5R,7S,8S,9R,9aS,12R)-8-hydroxy-4,7,9,12-tetramethyl-3-oxo-7-vinyldecahydro-4,9a-propanocyclopenta[8]annulen-5-yl 2-(((7-fluoro-1-hydroxy-1,3-dihydrobenzo[c][1,2]oxaborol-6-yl)carbamoyl)oxy)acetate]
MIC [1]: 0.5 to 2 µg/mL (≈ 0.875 to 3.5 µM) | MIC [2, 3]: 0.5 to 2 µg/mL (≈ 0.875 to 3.5 µM)

MIC [1, 4]: < 0.25 µg/mL | MIC [2, 5]: 0.5 to 2 µg/mL (≈ 0.981 to 3.93 µM)
SMILES: C=C[C@]1(C)C[C@@H](OC(=O)NCc2ccc3c(c2)B(O)OC3)[C@]2(C)[C@H](C)CC[C@]3(CCC(=O)[C@H]32)[C@@H](C)[C@@H]1O [Compound 56, (3aR,4R,5R,7S,8S,9R,9aS,12R)-8-hydroxy-4,7,9,12-tetramethyl-3-oxo-7-vinyldecahydro-4,9a-propanocyclopenta[8]annulen-5-yl ((1-hydroxy-1,3-dihydrobenzo[c][1,2]oxaborol-6-yl)methyl) carbamate]

SMILES: C=C[C@]1(C)C[C@@H](OC(=O)NCc2ccc3c(c2F)B(O)OC3)[C@]2(C)[C@H](C)CC[C@]3(CCC(=O)[C@H]32)[C@@H](C)[C@@H]1O [Compound 57, (3aR,4R,5R,7S,8S,9R,9aS,12R)-8-hydroxy-4,7,9,12-tetramethyl-3-oxo-7-vinyldecahydro-4,9a-propanocyclopenta[8]annulen-5-yl ((7-fluoro-1-hydroxy-1,3-dihydrobenzo[c][1,2]oxaborol-6-yl)methyl)carbamate]
MIC [1]: < 0.25 µg/mL | MIC [2, 3]: 0.5 to 2 µg/mL (≈ 0.948 to 3.79 µM)

SMILES: C=C[C@]1(C)C[C@@H](OC(=O)CNCc2ccc3c(c2)B(O)OC3)[C@]2(C)[C@H](C)CC[C@]3(CCC(=O)[C@H]32)[C@@H](C)[C@@H]1O [Compound 59, (3aR,4R,5R,7S,8S,9R,9aS,12R)-8-hydroxy-4,7,9,12-tetramethyl-3-oxo-7-vinyldecahydro-4,9a-propanocyclopenta[8]annulen-5-yl ((1-hydroxy-1,3-dihydrobenzo[c][1,2]oxaborol-6-yl)methyl)glycinate]
MIC [1]: 0.5 to 2 µg/mL (≈ 0.955 to 3.82 µM) | MIC [2, 3]: 4 to 32 µg/mL (≈ 7.64 to 61.1 µM)

SMILES: C=C[C@]1(C)C[C@@H](OC(=O)CNCc2ccc3c(c2)B(O)OC3(C)C)[C@]2(C)[C@H](C)CC[C@]3(CCC(=O)[C@H]32)[C@@H](C)[C@@H]1O [Compound 60, (3aR,4R,5R,7S,8S,9R,9aS,12R)-8-hydroxy-4,7,9,12-tetramethyl-3-oxo-7-vinyldecahydro-4,9a-propanocyclopenta[8]annulen-5-yl ((1-hydroxy-3,3-dimethyl-1,3-dihydrobenzo[c][1,2]oxaborol-6-yl)methyl)glycinate]
MIC [1]: 0.5 to 2 µg/mL (≈ 0.907 to 3.63 µM) | MIC [2, 3]: 4 to 32 µg/mL (≈ 7.25 to 58 µM)

SMILES: C=C[C@]1(C)C[C@@H](OC(=O)CSc2ccc3c(c2)B(O)OC3)[C@]2(C)[C@H](C)CC[C@]3(CCC(=O)[C@H]32)[C@@H](C)[C@@H]1O [Compound 61, (3aR,4R,5R,7S,8S,9R,9aS,12R)-8-hydroxy-4,7,9,12-tetramethyl-3-oxo-7-vinyldecahydro-4,9a-propanocyclopenta[8]annulen-5-yl 2-((1-hydroxy-1,3-dihydrobenzo[c][1,2]oxaborol-6-yl)thio)acetate]
MIC [1]: < 0.25 µg/mL | MIC [2, 3]: < 0.25 µg/mL

SMILES: C=C[C@]1(C)C[C@@H](OC(=O)C[S@@+]([O-])c2ccc3c(c2)B(O)OC3)[C@]2(C)[C@H](C)CC[C@]3(CCC(=O)[C@H]32)[C@@H](C)[C@@H]1O [Compound 62, (3aR,4R,5R,7S,8S,9R,9aS,12R)-8-hydroxy-4,7,9,12-tetramethyl-3-oxo-7-vinyldecahydro-4,9a-propanocyclopenta[8]annulen-5-yl2-((R)-(1-hydroxy-1,3-dihydrobenzo[c][1,2]oxaborol-6-yl)sulfinyl)acetate]
MIC [1]: < 0.25 µg/mL | MIC [2, 3]: 0.5 to 2 µg/mL (≈ 0.922 to 3.69 µM)

SMILES: C=C[C@]1(C)C[C@@H](OC(=O)C[S@+]([O-])c2ccc3c(c2)B(O)OC3)[C@]2(C)[C@H](C)CC[C@]3(CCC(=O)[C@H]32)[C@@H](C)[C@@H]1O [Compound 63, (3aR,4R,5R,7S,8S,9R,9aS,12R)-8-hydroxy-4,7,9,12-tetramethyl-3-oxo-7-vinyldecahydro-4,9a-propanocyclopenta[8]annulen-5-yl 2-((S)-(1-hydroxy-1,3-dihydrobenzo[c][1,2]oxaborol-6-yl)sulfinyl)acetate]
MIC [1]: 0.5 to 2 µg/mL (≈ 0.922 to 3.69 µM) | MIC [2, 3]: 4 to 32 µg/mL (≈ 7.37 to 59 µM)

SMILES: C=C[C@]1(C)C[C@@H](OC(=O)CS(=O)(=O)c2ccc3c(c2)B(O)OC3)[C@]2(C)[C@H](C)CC[C@]3(CCC(=O)[C@H]32)[C@@H](C)[C@@H]1O [Compound 64, (3aR,4R,5R,7S,8S,9R,9aS,12R)-8-hydroxy-4,7,9,12-tetramethyl-3-oxo-7-vinyldecahydro-4,9a-propanocyclopenta[8]annulen-5-yl 2-((1-hydroxy-1,3-dihydrobenzo[c][1,2]oxaborol-6-yl)sulfonyl)acetate]
MIC [1]: < 0.25 µg/mL | MIC [2, 3]: 0.5 to 2 µg/mL (≈ 0.895 to 3.58 µM)

SMILES: C=C[C@]1(C)C[C@@H](OC(=O)CSc2ccc3c(c2F)B(O)OC3)[C@]2(C)[C@H](C)CC[C@]3(CCC(=O)[C@H]32)[C@@H](C)[C@@H]1O [Compound 65, (3aR,4R,5R,7S,8S,9R,9aS,12R)-8-hydroxy-4,7,9,12-tetramethyl-3-oxo-7-vinyldecahydro-4,9a-propanocyclopenta[8]annulen-5-yl 2-((7-fluoro-1-hydroxy-1,3-dihydrobenzo[c][1,2]oxaborol-6-yl)thio)acetate]
MIC [1]: < 0.25 µg/mL | MIC [2, 3]: 0.5 to 2 µg/mL (≈ 0.918 to 3.67 µM)

SMILES: C=C[C@]1(C)C[C@@H](OC(=O)C[S@+]([O-])c2ccc3c(c2F)B(O)OC3)[C@]2(C)[C@H](C)CC[C@]3(CCC(=O)[C@H]32)[C@@H](C)[C@@H]1O [Compound 66, (3aR,4R,5R,7S,8S,9R,9aS,12R)-8-hydroxy-4,7,9,12-tetramethyl-3-oxo-7-vinyldecahydro-4,9a-propanocyclopenta[8]annulen-5-yl 2-((S)-(7-fluoro-1-hydroxy-1,3-dihydrobenzo[c][1,2]oxaborol-6-yl)sulfinyl)acetate]
MIC [1]: 0.5 to 2 µg/mL (≈ 0.892 to 3.57 µM) | MIC [2, 3]: 4 to 32 µg/mL (≈ 7.14 to 57.1 µM)

SMILES: C=C[C@]1(C)C[C@@H](OC(=O)C[S@@+]([O-])c2ccc3c(c2F)B(O)OC3)[C@]2(C)[C@H](C)CC[C@]3(CCC(=O)[C@H]32)[C@@H](C)[C@@H]1O [Compound 67, (3aR,4R,5R,7S,8S,9R,9aS,12R)-8-hydroxy-4,7,9,12-tetramethyl-3-oxo-7-vinyldecahydro-4,9a-propanocyclopenta[8]annulen-5-yl 2-((R)-(7-fluoro-1-hydroxy-1,3-dihydrobenzo[c][1,2]oxaborol-6-yl)sulfinyl)acetate]
MIC [1]: < 0.25 µg/mL | MIC [2, 3]: 0.5 to 2 µg/mL (≈ 0.892 to 3.57 µM)

MIC [1, 4]: < 0.25 µg/mL | MIC [2, 5]: 0.5 to 2 µg/mL (≈ 0.922 to 3.69 µM)
SMILES: C=C[C@]1(C)C[C@@H](OC(=O)COc2ccc3c(c2F)B(O)OCC3)[C@]2(C)[C@H](C)CC[C@]3(CCC(=O)[C@H]32)[C@@H](C)[C@@H]1O [Compound 68, (3aR,4R,5R,7S,8S,9R,9aS,12R)-8-hydroxy-4,7,9,12-tetramethyl-3-oxo-7-vinyldecahydro-4,9a-propanocyclopenta[8]annulen-5-yl 2-((8-fluoro-1-hydroxy-3,4-dihydro-1H-benzo[c][1,2]oxaborinin-7-yl)oxy)acetate]

MIC [1, 4]: < 0.25 µg/mL | MIC [2, 5]: < 0.25 µg/mL
SMILES: C=C[C@]1(C)C[C@@H](OC(=O)COc2ccc3c(c2)B(O)OCC3)[C@]2(C)[C@H](C)CC[C@]3(CCC(=O)[C@H]32)[C@@H](C)[C@@H]1O [Compound 69, (3aR,4R,5R,7S,8S,9R,9aS,12R)-8-hydroxy-4,7,9,12-tetramethyl-3-oxo-7-vinyldecahydro-4,9a-propanocyclopenta[8]annulen-5-yl 2-((1-hydroxy-3,4-dihydro-1H-benzo[c][1,2]oxaborinin-7-yl)oxy)acetate]

SMILES: C=C[C@]1(C)C[C@@H](OC(=O)COc2ccc3c(c2)B(O)N(C(=O)OC(C)(C)C)N=C3)[C@]2(C)[C@H](C)CC[C@]3(CCC(=O)[C@H]32)[C@@H](C)[C@@H]1O [Compound 71, tert-butyl 1-hydroxy-7-(2-(((3aR,4R,5R,7S,8S,9R,9aS,12R)-8-hydroxy-4,7,9,12-tetramethyl-3-oxo-7-vinyldecahydro-4,9a-propanocyclopenta[8]annulen-5-yl)oxy)-2-oxoethoxy)benzo[d][1,2,3]diazaborinine-2(1H)-carboxylate]
MIC [1]: < 0.25 µg/mL | MIC [2, 3]: < 0.25 µg/mL

SMILES: C=C[C@]1(C)C[C@@H](OC(=O)COc2ccc3c(c2)B(O)NN=C3)[C@]2(C)[C@H](C)CC[C@]3(CCC(=O)[C@H]32)[C@@H](C)[C@@H]1O [Compound 72, (3aR,4R,5R,7S,8S,9R,9aS,12R)-8-hydroxy-4,7,9,12-tetramethyl-3-oxo-7-vinyldecahydro-4,9a-propanocyclopenta[8]annulen-5-yl 2-((1-hydroxy-1,2-dihydrobenzo[d][1,2,3]diazaborinin-7-yl)oxy)acetate]
MIC [1]: < 0.25 µg/mL | MIC [2, 3]: < 0.25 µg/mL
